For this test, the system named is HEK293T cells carrying the ATF4 luciferase reporter. Put plainly: ATF4-Luc assay (ATF4 luciferase reporter, tunicamycin-treated cells). The note with it: Homo sapiens, HEK-293T, 1 μg/mL tunicamycin, 7 hours. The class given is cell-based. The essentials:
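A stable HEK293T reporter line was made by placing the full-length human ATF4 5′-UTR ahead of a firefly luciferase sequence without its start methionine, delivered by retroviral transduction and puromycin selection. Cells were seeded at 30,000 per well in polylysine-coated 384-well plates, exposed next day to 1 μg/mL tunicamycin plus compound for 7 hours, and luminescence was read with One Glo.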
(A reporter such as luciferase makes a cellular process visible.)

As for `O=C(CO)Nc1cc(F)c(F)cc1C(=O)NC12CC(NC(=O)COc3ccc(Cl)c(F)c3)(C1)C2` [Compound 1059, N-{3-[2-(4-chloro-3-fluorophenoxy)acetamido]bicyclo[1.1.1]pentan-1-yl}-4,5-difluoro-2-(2-hydroxyacetamido)benzamide], the EC50 lay in the range of 50 to 250 nM.

In general, EC50 refers to the concentration that produces a half-maximal response.

The values above are taken from US20240307382A1, “MODULATORS OF THE INTEGRATED STRESS PATHWAY” (Calico Life Sciences LLC, priority 2017, published 2024).
